One assay relates to adult female O. ochengi. Nature of the assay: Adult female Onchocerca ochengi viability, MTT/formazan assay in vitro. The assay is classed as cell-based. As to conditions: Day 7, MTT/formazan. Here is the method: Cows that had grazed in northern Cameroon where O. ochengi is highly endemic were brought to abattoirs located in Douala, Cameroon. Subcutaneous nodules containing adult O. ochengi worms were identified on the umbilical skin of infected cows. Adult worm masses containing one viable, adult female and zero to several adult males were carefully recovered by dissection of the nodule with a sterile razor blade. The masses were then incubated in 4 mL of complete culture medium (CCM), which was comprised of RPMI-1640 (Sigma-Aldrich), 5% newborn calf serum, 200 units/mL penicillin, 200 μg/mL streptomycin and 2.5 μg/mL amphotericin B (Sigma-Aldrich), in standard 12-well culture plates. […] Adult female worm viability was assessed on day 7 by the standard MTT/formazan assay in which each nodular mass was placed in a well of a 48-well microtiter plate containing 500 μL of 0.5 mg/mL MTT (Sigma-Aldrich) in incomplete culture medium, and then incubated in the dark at 37°C for 30 minutes. Adult female worm viability was evaluated visually by the extent to which the female worm mass was stained with MTT. Mean percent inhibition of formazan formation was calculated relative to the negative control worm masses after 7 days in culture. […]

For assay [1], the system named is Recombinant B. malayi TrxR (rBmTrxR). As to the kind of experiment: Recombinant B. malayi TrxR (rBmTrxR) DTNB inhibition assay. It counts as biochemical, Brugia malayi. Here is the method: Recombinant 6-His-tagged B. malayi TrxR (rBmTrxR) was produced in E. coli BL21(DE3) in the presence of pSUABC [29] in LB medium supplemented with 20 μg/mL riboflavin under conditions for optimal selenoprotein expression. An overnight starter culture in LB with 50 μg/mL ampicillin and 34 μg/mL chloramphenicol was diluted (1:100) into in LB medium with the same antibiotics. When the culture reached an OD600 = 0.8, the medium was supplemented with 5 μM sodium selenite and 100 μg/mL L-cysteine. When the culture OD600 = 2, riboflavin (20 μg/mL) was added and protein expression was induced by the addition of isopropyl β-D-1-thiogalactopyranoside (50 μM). At this point the cultures were shifted to 24°C and incubated for 24 hr. Cells were collected by centrifugation, lysed by alternative freeze-thaw cycles, and resuspended in lysis buffer (50 mM potassium phosphate, pH 7.8, 500 mM NaCl, 30 mM imidazole, 1 mg/mL lysozyme, 1 mM phenylmethanesulfonylfluoride) supplemented with 100 μM flavin adenine dinucleotide. The sample was sonicated and cellular debris pelleted at 25,000 x g at 4°C for 25 min. The supernatant was collected and filtered through a 0.45 μm filter before purification by immobilized metal ion affinity chromatography using a His-Trap FF column (GE Healthcare). The column was washed with 10 column volumes binding buffer (50 mM potassium phosphate, pH 7.8, 500 mM NaCl, 30 mM imidazole) and then with 5 column volumes of buffer A (binding buffer with 100 mM imidazole). TrxR protein was eluted in 3 × 1 mL buffer B (binding buffer with 500 mM imidazole).Protein was concentrated (Amicon Ultra-4 10K) and purity was verified by SDS-PAGE and quantified by absorbance at 280 nm (ε = 69.76 mM^-1 cm^-1).
rBmTrxR activity was assayed in 0.1 M potassium phosphate (pH 7.2) with 10 mM EDTA and 25 nM rBmTrxR. rBmTxrR was pre-incubated for 20 min with NADPH (100 μM) and auranofin (ICN Pharmaceuticals, now Valeant Pharmaceuticals, Bridgewater, NJ) or aurothioglucose (USP Reference Standards, Rockville, MD) in DMSO in 100 μL, followed by addition of an equal volume of buffer with NADPH (200 μM) and DTNB (6 mM) with reaction progress monitored at λ = 412 nm for TNB production. The concentration of DMSO in all reactions was 3.5%.

The subject of a further assay is adult female B. pahangi. As to the kind of experiment: Transmission electron microscopy of treated adult female B. pahangi. The assay is classed as cell-based, Brugia pahangi. As to conditions: auranofin 1 μM, 0.3 μM or 0.1 μM overnight, vs 1% DMSO. Here is the method: Adult female B. pahangi worms were incubated with either 1 μM, 0.3 μM, or 0.1 μM auranofin, 10 μM flubendazole (as a positive control), or 1% DMSO overnight, then cut into 3 segments separating the anterior, middle and posterior sections. The middle sections were further cut into 1 mm sized pieces in fixative (2.5% glutaraldehyde and 2% paraformaldehyde in 0.1 M sodium cacodylate buffer, pH 7.3–7.4) and stored at 4°C. Middle sections were subsequently treated with 1% tannic acid for 1 hour, followed by three buffer washes before post fixation staining with 2% osmium tetroxide for 1 hour. The samples were washed three times in buffer before dehydration in an ethanol series. Worm sections were then infiltrated with propylene oxide, embedded in epon 812 resin and polymerized in a vacuum oven at 60°C overnight. Ultrathin sections were cut using an RMC MTX ultramicrotome with a Diatome diamond knife followed by post staining of the grids with saturated ethanolic uranyl acetate and Reynolds lead citrate. Samples were imaged on a FEI Tecnai 12 spirit TEM operated at 80 kV. A similar procedure was performed on adult female O. ochengi worm masses that were cultured for 7 days with 10 μM auranofin before fixation of cut pieces of the adult female mass. Untreated adult female masses cultured for 7 days and fixed by the same procedure served as the control.

“Also recorded” adds a separate entry of the source.

For the compound `CC[PH](CC)(CC)[Au][S][C@@H]1O[C@H](COC(C)=O)[C@@H](OC(C)=O)[C@H](OC(C)=O)[C@H]1OC(C)=O` [auranofin, 2,3,4,6-tetra-O-acetyl-1-thio-beta-D-glucopyranosato-S (triethylphosphine) gold], the IC50 in the assay on adult female O. ochengi amounted to 0.3 µM; in assay [1] (25 nM rBmTrxR, 20 min pre-incubation with NADPH, DTNB substrate) it was 0.003 µM. Further, in assay [1], the “mode of inhibition of rBmTrxR” value is “irreversibly inhibit rBmTrxR at a one-to-one molar ratio”. Also, in the assay with adult female B. pahangi, the “ultrastructure (TEM) of adult female B. pahangi” value was “considerable damage in the hypodermal region; also recorded: extensive damage to Wolbachia in the hypodermal area”.

As usually defined, the IC50 is the point on the concentration scale where inhibition reaches its midpoint.
